Measured values published in patent publication US20170053081A1, “METHODS AND MATERIALS FOR CHARACTERIZING INTESTINAL BARRIER FUNCTION” (THE ARIZONA BOARD OF REGENTS ON BEHALF OF THE UNIVERSITY OF …, priority 2014, published 2017).

Tests used:
plasma FABP2 = experiment: Serial plasma FABP2 (ELISA) in children after cardiopulmonary bypass for CHD, by treatment factor; conditions: children after CPB; for Association of infusion with elevation in plasma FABP2 over time: vasoactive infusions, any dose, p<0.01
Protocol: (§1) Inclusion criteria were age greater than 37 weeks corrected gestational age and a diagnosis of CHD requiring surgical repair or palliation with the use of CPB. Exclusion criteria were known pre-existing gastrointestinal dysfunction, immune dysfunction, active intracranial bleeding, and anuric renal failure. All operations were performed by two surgeons. CPB and anesthetic regimens were per usual care.
Blood samples for measurement of plasma FABP2, claudin 3, and citrulline were collected from indwelling intravascular catheters pre-operatively after induction of general anesthesia, but prior to CPB, and at 6, 12, 24, 48, and ≧120 hours post-operatively. Final samples at ≧120 hours were collected between 120 and 168 hours post-operatively to evaluate the return to baseline values. Control samples were obtained intra-operatively from the CPB circuits prior to connection to the patient. […]
Clinical data included candidate factors likely to alter intestinal barrier function. […] Vasoactive-inotrope score (VIS) was determined at time of sample collection and was previously validated (see, e.g., Gaies, et al., Pediatric critical care medicine: a journal of the Society of Critical Care Medicine and the World Federation of Pediatric Intensive and Critical Care Societies 2010; 11:234-8).
Plasma concentrations of human FABP2 were evaluated by ELISA according to the manufacturer's protocol (Standards range: 10 000 pg/ml to 156.25 pg/ml) (R&D Systems, Minneapolis, Minn.). Claudin 3 concentration was evaluated by ELISA in plasma from patients according to manufacturer's instruction (standard range from 20 ng/ml to 0.312 ng/ml) (Uscn life science Inc, Wuhan, China).
Data were analyzed using STATA SE/11 software. […] As citrulline values were normally distributed, the effect of binary variables on citrulline were evaluated with a Student's t-test. […] The effect continuous and categorical variables over time on repeated log-transformed plasma FABP2, log-transformed claudin 3, and citrulline was evaluated with multi-level mixed-effects linear regression. […]

[1] = system: intestinal barrier function; experiment: Intestinal barrier function biomarker panel (plasma FABP2, claudin 3, citrulline) in children after cardiopulmonary bypass; conditions: for Association with changes in post-operative FABP2, claudin3, or citrulline: caudal or spinal, post-operative pain management, p>0.05
Protocol: A panel of plasma biomarkers was used to reflect intestinal epithelial cellular and paracellular structure (FABP2 and claudin 3), as well as cellular and paracellular function (citrulline and DSPT). In particular, twenty children aged newborn to 18 years undergoing repair or palliation of congenital heart disease with CPB were examined. Plasma FABP2, claudin 3, and citrulline were measured after induction of general anesthesia, and at 6, 12, 24, 48, and 120 hours post-operatively.
as §1
Blood samples for measurement of plasma FABP2, claudin 3, and citrulline were collected from indwelling intravascular catheters pre-operatively after induction of general anesthesia, but prior to CPB, and at 6, 12, 24, 48, and ≧120 hours post-operatively. […]
Plasma concentrations of human FABP2 were evaluated by ELISA according to the manufacturer's protocol (Standards range: 10 000 pg/ml to 156.25 pg/ml) (R&D Systems, Minneapolis, Minn.). Claudin 3 concentration was evaluated by ELISA in plasma from patients according to manufacturer's instruction (standard range from 20 ng/ml to 0.312 ng/ml) (Uscn life science Inc, Wuhan, China). […]
Samples were separated on Phenomenex Luna HILIC 200A SB-C18, 3 μm, 150×2.00 mm column (Torrance, Calif.) using Paradigm MS4B-multi-dimensional separations module (Michrom BioResources, Inc., Auburn, Calif.). […] Full injection loop (20 μl) was used to introduce 2 μl sample diluted with 18 μl of solvent B. AB SCIEX API 3000 triple-quadrupole mass spectrometer (Applied Biosystems, Foster City, Calif.) controlled by Analyst 1.5.1 in-line with the HPLC was used for citrulline detection and quantitative analysis.

SMILES	Association with elevated plasma FABP2 (plasma FABP2; p=0.03)	Association of infusion with elevation in plasma FABP2 over time (plasma FABP2)	Risk for intestinal barrier dysfunction ([1]; children undergoing CPB, post-operative use to maintain mean arterial blood pressure)	Association with changes in post-operative FABP2, claudin3, or citrulline [1]
CNC[C@H](O)c1ccc(O)c(O)c1 [epinephrine]	associated with elevated plasma FABP2	associated with		
NC(=O)CC[C@@H]1NC(=O)[C@H](Cc2ccccc2)NC(=O)[C@H](Cc2ccc(O)cc2)NC(=O)[C@@H](N)CSSC[C@@H](C(=O)N2CCC[C@H]2C(=O)N[C@@H](CCCN=C(N)N)C(=O)NCC(N)=O)NC(=O)[C@H](CC(N)=O)NC1=O [vasopressin]		associated with	increase the risk for intestinal barrier dysfunction	
CN1CC[C@]23c4c5ccc(O)c4O[C@H]2[C@@H](O)C=C[C@H]3[C@H]1C5 [morphine]				not associated with changes
CCCCN1CCCCC1C(=O)Nc1c(C)cccc1C (stereo not drawn) [bupivicaine]				not associated with changes
